Experiments:
[1] = test system: TOP1 DNA-protein crosslinks (TOP1-DPCs) in DMS114 cells; assay: in vivo complex of enzyme; type: cell-based, human
[2] = test system: replication protein A (RPA) S33 phosphorylation; assay: Western blot of RPA phosphorylation; type: cell-based, human
DMS114 cells = assay: flow cytometry EdU incorporation and cell cycle analysis; type: cell-based, human; conditions: M6620 with topotecan; forced progression to G2/M phase
[3] = plasma pharmacokinetics in trial patients; type: in vivo, human; conditions: cycle 1, suggesting absence of drug-drug interactions
SCLC cells = assay: MIPE 5.0 library combination screen with indotecan, pairs ranked by ExcessHSA; type: cell-based, human; conditions: in combination with indotecan (LMP400)
[4] = test system: DMS114 and H209 SCLC cell models; assay: replication; type: cell-based, human
pCHK1 (Ser345) = assay: pharmacodynamics of pCHK1; type: in vivo, mice; conditions: M6620 10, 20 and 30 mg/kg i.v. with 50 mg/kg irinotecan i.p.; 1-24 h
[5] = test system: platinum-resistant SCLC patients; conditions: second-line lurbinectedin; ref Trigo et al., 2020; cited from earlier work
[6] = test system: patients with platinum-resistant SCLC; conditions: topotecan monotherapy, ref Horita et al., 2015; cited from earlier work

## O=c1cc(-c2cccc3c2Sc2ccccc2S3)oc(N2CCOCC2)c1 [KU55933]
[1]; 1 μM pretreatment 4 h before topotecan 1 μM 2 h
  potentiation of topotecan-generated TOP1-DPCs: neither an ATM inhibitor (KU55933) nor a DNA-PKcs inhibitor (VS984) potentiated topotecan-generated TOP1-DPCs

## CNCc1ccc(-c2cc(-c3nc(-c4ccc(S(=O)(=O)C(C)C)cc4)cnc3N)on2)cc1 [M6620, berzosertib]
[2]; M6620 treatment
  topotecan-induced RPA32 phosphorylation: reduced the topotecan-induced RPA32 phosphorylation
DMS114 cells
  S-phase arrest induced by TOP1 inhibition: abrogated the S-phase arrest induced by TOP1 inhibition
[3]
  plasma pharmacokinetics in combination: appeared consistent with the individual agents
SCLC cells
  rank of TOP1 inhibitor-drug pair by ExcessHSA: 32
[4]; M6620 added to topotecan
  topotecan-induced replication block: abrogated the replication block
[1]; M6620 pre-treatment (1 μM, 4 h), after 2-hour treatment with topotecan (1 μM)
  increase in TOP1-DPCs: 1.4 fold
pCHK1 (Ser345)
  irinotecan induced pCHK1 (Ser345): blocks irinotecan induced pCHK1 in a dose- and time-dependent manner

## COc1ccc2[nH]c3c(c2c1)CCN[C@]31CS[C@@H]2c3c(OC(C)=O)c(C)c4c(c3[C@H](COC1=O)N1[C@@H]2[C@H]2c3c(cc(C)c(OC)c3O)C[C@@H]([C@@H]1O)N2C)OCO4 [lurbinectedin]
[5]
  confirmed ORR: 22.2%
  median DOR: 4.7 months
  patients with confirmed responses with DOR>6 months: 11.7%

## CC(C)c1cc(-c2n[nH]c(=O)n2-c2ccc3c(ccn3C)c2)c(O)cc1O [ganetespib]
SCLC cells
  rank of TOP1 inhibitor-drug pair by ExcessHSA: 5

## CC[C@@]1(O)C(=O)OCc2c1cc1n(c2=O)Cc2cc3c(CN(C)C)c(O)ccc3nc2-1 [topotecan]
[2]; DMS114 cells, following exposure to topotecan
  phosphorylation of RPA at S33: rapid phosphorylation of replication protein A (RPA) at S33
[3]
  plasma pharmacokinetics in combination: appeared consistent with the individual agents
[4]; within 30 minutes of topotecan treatment
  replication velocity: significantly reduced replication velocity
[6]
  responses (proportion of patients): approximately 5%

## COc1cccc(OCCCN)c1-c1cc(Nc2cnc(C#N)cn2)n[nH]1 [prexasertib]
SCLC cells
  rank of TOP1 inhibitor-drug pair by ExcessHSA: 9
